Patent publication US5096904A, “Pyridazinones having cardiotonic and beta blocking activities” (Glaxo Inc., priority 1990, dated 1992)

System: dP/dt (contractility) in barbiturate-anesthetized dogs
Experiment: Anesthetized dog, inotropic effect (baseline left ventricular dP/dt)
Assay type: in vivo, mongrel dogs
Conditions: with atenolol
Description: Inotropic effects were evaluated in barbiturate-anesthetized dogs by differentiating left intraventricular pressure. This procedure was carried out essentially as described by M. K. Grizzel et al in the FASEB Journal, Vol. 3, page 1039, abstract 4728 (1989). […] Cardiac output was determined via thermodilution with a Spectramed computer (Starcom, Oxnard, Calif.) and a 5F Swan Ganz catheter which was inserted into the right jugular vein and positioned in the pulmonary artery. […] A lead II electrocardiogram was measured using subcutaneous electrodes. […] Rectal temperature was monitored and maintained at 37°-38° C. with a heating pad (Baxter Health Care model K20, McGaw Park, Ill.). All variables were recorded using a Gould 3800S physiograph.
Isoproterenol (0.1-0.5 mg/kg) was injected i.v. into the cephalic vein at 10 min intervals except for when the test drug infusion was begun. […] Inhibition of the isoproterenol responses on contractility (dP/dt), heart rate and diastolic blood pressure were determined at each dose of test compound. The inotropic effect of each compound was determined by comparing the level of dP/dt at the end of each 10 min period to that of the level of dP/dt just prior to the infusion of test compound. […]

O=C(COc1ccc(C2=NNC(=O)CC2)cc1Cl)NCCNC[C@H](O)COc1ccccc1 [Example 19, 6-{4-[N-[2-[3-phenoxy-2-hydroxypropylamino]ethyl]carbamoylmethoxy]-3-chlorophenyl}-4,5-dihydro-3(2H)-pyridazinone]
inotropic effects, blockade by atenolol: not blocked by atenolol
